The results in this text go back to PMC9301601 (Frontiers in Pharmacology, 2022).

The data set relates to hiPSC-CMs. The data set can be described thus: Action potential recording in hiPSC-CMs, whole-cell patch-clamp (current-clamp). It counts as cell-based, human. The conditions noted are these: LPV-treated hiPSC-CMs, Figure 6H. Background: The patch-clamp technique gives a direct electrical read-out from membranes.

On to `Cc1cccc(C)c1OCC(=O)N[C@@H](Cc1ccccc1)[C@@H](O)C[C@H](Cc1ccccc1)NC(=O)[C@H](C(C)C)N1CCCNC1=O` [LPV, lopinavir], for which the “Interval (spontaneous rate interval)” value was determined as 1.4 ± 0.3 s.
